# Results taken from patent US9447060B2, “Small molecule modulators of pRb inactivation” (The Wistar Institute of Anatomy and Biology, priority 2011, dated 2016).
# Tests used:
# [1] = tested on: SiHa cells; test: Cell cycle and apoptosis in SiHa cells, propidium iodide flow cytometry and morphology; type: cell-based; conditions: 48 hours
# Description: Since the thiadiazolin-3,5-dione compounds bind to pRb, data was generated regarding their effect in cells infected with HPV. […] DNA content was determined by propidium iodine staining and analysis by flow cytometry.
# Cultured cell lines were seeded in 60 mm tissue culture dishes (Falcon) at 1×10^5 cells/well. […] Cells were then trypsinized, washed with phosphate-buffered saline (1.0 mL; PBS), and fixed in ethanol (80%) for 30 minutes on ice. Fixed cells were spun at 500 g for 5 minutes, rehydrated with PBS (1 mL), and spun again to remove any traces of ethanol. Cells were stained with propidium iodide (250 μL; PI), which was prepared by adding PI (100 μL, 2 mg/ml, Sigma) and RNase A (3.5 μL of 30 mg/ml, Sigma) into PBS (10 mL). Cells were then analyzed at the Wistar Institute Flow Cytometry Core Facility using standard equipment, reagents, and methodologies known in the art.
# [2] = biological target: T1, pRbAB (Homo sapiens, UniProt P06400, DEL590-635); test: Isothermal titration calorimetry binding to pRbAB; conditions: for Kd: ITC, pRbAB, 22° C.
# T1 construct: untagged pRbAB (372-787 with the linker from 590-635 removed); made in house
# T1 sequence (P06400 with tags, fused parts or gaps DEL590-635): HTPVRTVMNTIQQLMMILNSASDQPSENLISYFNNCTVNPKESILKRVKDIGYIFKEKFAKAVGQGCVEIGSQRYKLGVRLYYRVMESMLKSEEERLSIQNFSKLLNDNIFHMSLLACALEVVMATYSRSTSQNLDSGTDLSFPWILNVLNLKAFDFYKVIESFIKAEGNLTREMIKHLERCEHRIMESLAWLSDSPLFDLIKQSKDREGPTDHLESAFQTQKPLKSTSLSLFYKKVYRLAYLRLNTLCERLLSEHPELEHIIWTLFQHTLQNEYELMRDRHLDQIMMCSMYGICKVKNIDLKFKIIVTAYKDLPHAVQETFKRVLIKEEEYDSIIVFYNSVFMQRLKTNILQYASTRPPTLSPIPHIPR
# Description: For use in isothermal titration calorimetry studies, untagged pRbAB (372-787 with the linker from 590-635 removed) was prepared as described in Xiao et al., PNAS USA, 100:2363-2368 (2003).
# This example illustrates the ability of the thiadiazolin-3,5-dione compounds to bind directly to a truncated pRb protein construct containing the A and B domains of the pRb pocket (pRbAB) using isothermal titration calorimetry (ITC).
# Binding of compounds 1-9 to pRbAB were measured by ITC using a MicroCal™ VP-ITC isothermal titration calorimeter (MicroCal, Inc). Proteins were extensively dialyzed against a buffer containing Hepes (20 mM), pH=7.5, NaCl (150 mM) and Tris carboxy ethyl phosphine (0.1 mM) prior to analysis. Eight to twelve μL injections of 750-1500 μM compound were titrated into a pRb solution (50-150 μM) pre-equilibrated to 22° C. After subtraction of dilution heats, calorimetric data were analyzed with the MicroCal™ Origin® V5.0 (MicroCal Software, Northampton, Mass.).
# [3] = biological target: T2, GST-pRbABC/6×His-HPV1AE7CR2-3 complex (Homo sapiens, UniProt P06400); test: ELISA: disruption of pRb/HPV1A-E7 complex; type: binding, low risk HPV (type 1A); conditions: disruption of pRb/viral oncoprotein complex; 500 nM 1AE7
# T2 construct: made in house; host or cells: pRb: Sf9; E7: E. coli BL21(DE3)
# T2 sequence (P06400 376-928): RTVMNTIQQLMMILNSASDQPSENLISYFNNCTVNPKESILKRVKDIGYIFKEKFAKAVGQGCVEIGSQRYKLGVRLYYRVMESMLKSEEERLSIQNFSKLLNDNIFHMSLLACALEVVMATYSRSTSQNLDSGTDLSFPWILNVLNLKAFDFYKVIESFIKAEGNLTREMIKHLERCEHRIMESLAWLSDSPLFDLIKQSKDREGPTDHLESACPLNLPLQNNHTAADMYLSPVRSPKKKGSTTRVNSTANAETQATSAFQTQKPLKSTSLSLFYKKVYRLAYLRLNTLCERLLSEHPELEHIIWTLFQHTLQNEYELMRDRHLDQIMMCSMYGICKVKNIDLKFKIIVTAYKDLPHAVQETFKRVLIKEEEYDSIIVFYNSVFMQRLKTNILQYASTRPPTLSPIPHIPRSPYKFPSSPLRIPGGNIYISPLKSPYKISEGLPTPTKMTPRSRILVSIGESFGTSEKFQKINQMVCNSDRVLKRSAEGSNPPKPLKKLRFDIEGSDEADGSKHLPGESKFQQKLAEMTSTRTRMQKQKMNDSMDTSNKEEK
# Description: (§1) A similar ELISA assay was used to assess the ability of the compounds to inhibit the ability of HPV16-E7-mediated disruption of E2F/pRb complexes. For these studies, 6×His-HPV1AE7CR2-3 and 6×His-Ad5E1ACR1-3, containing the L×C×E motif, were employed. The assay described above was modified in such a way that GST-pRbABC alone was added to HPV-E7CR2-3+ compound, HPV-E7CR2-3+DMSO, Ad5-E1ACR1-3+ compound, or Ad5-E1ACR1-3 DMSO. Mouse monoclonal anti-His antibody (Fisher) diluted 1:10,000 was used to detect how much His-E7CR2-3 remained bound to GST-pRbABC on the plate. Mouse monoclonal Ad5-E1A antibody (Abeam) diluted 1:10,000 was used to detect how much E1ACR1-3 remained bound to GST-pRbABC on the plate. All other steps remained unchanged.
# [4] = biological target: T3, GST-pRbABC/6×His-Ad5E1ACR1-3 complex (Homo sapiens, UniProt P06400); test: ELISA: disruption of pRb/Ad5-E1A complex; type: binding, adenovirus; conditions: disruption of pRb/viral oncoprotein complex; 100 nM E1A
# T3 construct: made in house; host or cells: pRb: Sf9; E1A: E. coli BL21(DE3)
# T3 sequence (P06400 376-928): T2 sequence (P06400 376-928)
# Description: as §1
# [5] = biological target: T4, GST-pRbABC/E2F complex disrupted by 6×His-HPV1AE7CR2-3 (Homo sapiens, UniProt P06400); test: ELISA: inhibition of HPV1A-E7-mediated disruption of pRb/E2F complexes; type: binding, low risk HPV (type 1A); conditions: E2F remaining bound to pRb; 500 nM 1AE7
# T4 construct: made in house; host or cells: pRb: Sf9; E2F1 and E7: E. coli BL21(DE3)
# T4 sequence (P06400 376-928): T2 sequence (P06400 376-928)
# T4 sequence (Q01094 243-437 partner limits assumed): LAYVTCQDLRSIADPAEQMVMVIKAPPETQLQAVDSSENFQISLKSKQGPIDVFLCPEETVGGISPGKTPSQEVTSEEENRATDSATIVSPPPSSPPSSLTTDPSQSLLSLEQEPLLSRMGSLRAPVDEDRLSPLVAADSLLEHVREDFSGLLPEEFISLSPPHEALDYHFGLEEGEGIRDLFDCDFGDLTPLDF
# Description: (§2) Since HPV-E7 mediates high affinity pRb binding through the association of its L×C×E motif in CR2 to the B domain of pRb, the ability of the thiadiazolidinedione compounds to inhibit the ability of other L×C×E containing viral oncoproteins from disrupting E2F/pRb complexes was tested. The other L×C×E containing viral oncoproteins tested included HPV-E7 from a low risk HPV form (type 1A) and Adenovirus E1A proteins.
# as §1
# [6] = biological target: T5, GST-pRbABC/E2F complex disrupted by 6×His-Ad5E1ACR1-3 (Homo sapiens, UniProt P06400); test: ELISA: inhibition of adenovirus E1A-mediated disruption of pRb/E2F complexes; type: binding; conditions: E2F remaining bound to pRb; 100 nM E1A
# T5 construct: made in house; host or cells: pRb: Sf9; E2F1 and E1A: E. coli BL21(DE3)
# T5 sequence (P06400 376-928): T2 sequence (P06400 376-928)
# T5 sequence (Q01094 243-437 partner limits assumed): T4 sequence (Q01094 243-437 partner limits assumed)
# Description: as §2, §1
# [7] = biological target: T6, GST-pRbABC/6×His-HPV16-E7CR2-3 complex (Homo sapiens, UniProt P06400); test: ELISA: disruption of pRb/HPV16-E7 complex; type: binding; conditions: disruption of pRb/viral oncoprotein complex; 500 nM 16E7
# T6 construct: made in house; host or cells: pRb: Sf9; E7: E. coli BL21(DE3)
# T6 sequence (P06400 376-928): T2 sequence (P06400 376-928)
# Description: An ELISA assay was utilized with modifications such that the amount of 6×His-HPV16-E7CR2-3 remaining bound to the partner protein on the plate could be measured. The compounds identified in Example 2 were purchased (Lankenau Institute for Medical Research) as powders. Their purity was verified by LC/MS and their structures by NMR. IC50 values were then measured for (i) the compounds identified in Example 1, (ii) the compounds prepared according to Examples 3-5, (iii) 2-phenyl-4-methyl-1,2,4-thiadiazolidin-3,5-dione (available from Molport, Latvia), and (iv) 4-benzyl-2-methyl-1,2,4-thiadiazolidin-3,5-dione (TDZD-8; Catalog No. T8325-5MG, Sigma) using the same ELISA-based assay as described for the high-throughput screen, except that the assay was performed manually in 96-well format and so all volumes used were double those from 384-well format.
# All compounds were solubilized in DMSO (50 mM) and diluted for use in the ELISA-based assay at a final DMSO concentration of less than 5%. Ten-fold dilutions of thiadiazolin-3,5-dione compound (starting at 100 μM) were added to a mixture containing GST-pRbABC and 6×His-HPV16E7CR2-3. The amount of E7 remaining was determined by adding a primary anti-His antibody. The concentrations of the compounds in the IC50 experiment spanned the range of enzyme activity from no inhibition to complete inhibition. Three independent IC50 measurements were performed for each compound and the average and standard deviation values are reported. All data was imported into the GraphPad® Software (Prism) for IC50 determination. To calculate the IC50 values, the dose-response curves were fit to one-site (Hill slope=1) sigmoidal-dose-response curves.
# [8] = tested on: SiHa cells (HPV 16); test: MTS cytotoxicity in SiHa cells; type: cell-based; conditions: 48 hours
# Description: These 120 compounds were then analyzed for cytotoxicity in cervical cancer cells either infected with HPV16 (SiHa) or negative for infection with HPV (C-33A) (Yee et al., 1985). The metabolic viability of cells was measured using a MTS assay (3-(4,5-dimethylthiazol-2-yl)-5-(3-carboxymethoxyphenyl)-2-(4-sulfophenyl)-2H-tetrazolium).
# (§3) Cultured cell lines were seeded in 384-well, clear, tissue culture plates (NUNC) at 10,000 cells/well and 1,000 cells/well for C-33A and SiHa, respectively, and maintained overnight. These concentrations were determined based on each cell line's doubling time. […] Cell viability was then monitored by addition of MTS reagent (8 μL; Promega) and measurement at A490 using a Wallac Envision™ plate reader after 3 hours of incubation.
# as §3, with “10,000 cells/well, 1,000 cells/well, 1,000 cells/well, 1,000 cells/well,” for “10,000 cells/well”, “and 2,000” for “and 1,000”, “for C-33A,” for “for C-33A and”, “SiHa, HeLa, TC-1, or HCT116 cells,” for “SiHa,”
# [9] = 10 μM compound (staurosporine 2 μM)
# [10] = SiHa, 10 μM compound (staurosporine 2 μM)
Structure (SMILES),morphology of SiHa cells [1],"effect on SiHa cells [1, 9]","% Apoptotic [1, 10] [%]","% G0/G1 [1, 10] [%]","% G2/M [1, 10] [%]","% S [1, 10] [%]",Kd [2] [µM],IC50 [3] [µM],IC50 [4] [µM],IC50 [5] [µM],IC50 [6] [µM],IC50 [7] [µM],reversibility of binding to pRb ([2]; ITC repeated after overnight dialysis of pRb/compound complex),cytotoxicity in SiHa cells [8]
"Cn1c(=O)on(-c2ccc(Cl)c(Cl)c2)c1=O [2-(3,4-dimethyl-phenyl)-4-methyl-1,2,4-oxadiazolin-3,5-dione, reference compound]",maintained the elongated shape,no effect,0.9,71.8,16.3,11.3,–,–,–,–,–,–,–,–
Cc1ccccc1-n1sc(=O)n(C(C)C)c1=O [Compound 1],–,–,–,–,–,–,0.165 ± 0.052,7.9 ± 2.1,5 ± 1.8,10.6 ± 1.3,2.8 ± 2.2,–,–,–
COn1c(=O)sn(-c2ccccc2C)c1=O [Compound 2],–,–,–,–,–,–,0.104 ± 0.025,3 ± 2.3,2.6 ± 1.3,3.5 ± 1.6,0.64,0.57 ± 1.2,–,–
Cc1ccccc1-n1sc(=O)n(C)c1=O [Compound 3],–,most drastically affected,6.5,–,–,15.4,0.106 ± 0.034,3.4 ± 2,1 ± 2.1,4.5 ± 1.7,0.24,0.5 ± 1.5,reversible,–
Cc1cc(Cl)ccc1-n1sc(=O)n(C(C)C)c1=O [Compound 4],–,most drastically affected,15.2,–,–,15.8,0.187 ± 0.022,4.7 ± 2.1,3.8 ± 1.5,5.5 ± 1.7,1.3 ± 2.2,4.5 ± 1.5,–,–
Cc1cccc(-n2sc(=O)n(C(C)C)c2=O)c1 [Compound 5],–,–,–,–,–,–,0.21 ± 0.051,5.5 ± 2.7,3.5 ± 1.7,5.5 ± 1.5,1.1 ± 2.5,3.2 ± 1.3,–,–
COc1ccc(-n2sc(=O)n(C)c2=O)cc1 [Compound 6],–,–,–,–,–,–,0.381 ± 0.031,1.3 ± 1.3,7.7 ± 1.7,3.3 ± 1.6,1.7 ± 2.7,0.4,–,–
COc1cccc(-n2sc(=O)n(C)c2=O)c1 [Compound 7],–,–,–,–,–,–,0.815 ± 0.07,4 ± 2.5,2.8 ± 2.1,3.5 ± 1.7,3.2 ± 2.7,0.29,–,–
"CN[C@@H]1C[C@H]2O[C@@](C)([C@@H]1OC)n1c3ccccc3c3c4c(c5c6ccccc6n2c5c31)C(=O)NC4 [Staurosporine, reference compound]",–,most drastically affected,34.3,31.3,–,13.8,–,–,–,–,–,–,–,toxic
